# Data reported in patent publication US20150045387A1, “Bi-Aromatic And Tri-Aromatic Compounds As NADPH Oxidase 2 (Nox2) Inhibitors” (The University of Surrey, priority 2011, published 2015).
# Tests used:
# [1] = test system: Differentiate human neutrophils (HL-60 cells); experiment: PMA-stimulated O2.- production by differentiated human neutrophils, lucigenin-chemiluminescence; type: cell-based; conditions: HL-60 neutrophils, PMA 100 ng/ml for 5 min
# Experimental: (§1) A) Differentiate human neutrophils (HL-60 cells, 5×10^4 cells/well) were stimulated with PMA (100 ng/ml) for 5 min in the presence or absence of LMH036 at the dose indicated. O2.^− production was measured by lucigenin-chemiluminescence. B) HPMEC were stimulated with TNFα (100 U/ml) for 45 min. Cells were immediately frozen in liquid nitrogen and homogenised. Cell homogenates (0.1 mg/well) were pre-incubated with LMH036 at the indicated dose for 5 min and measured for the O2.^− production in the presence of NADPH (100 μM) by lucigenin-chemiluminescence.
# HL-60 is a human promyelocytic leukaemia cell line. […]
# (§2) O2^− production by different cell types was measured using lucigenin (5 μM)-chemiluminescence. A microplate luminometer (LumiStar, BMG) was used, which allows the examination of 96 samples at the same time with kinetic reading facilities. […] Dark-adapted lucigenin (5 μM) was added into the well through an auto-dispenser located in the dark chamber just before reading. The light emission was recorded over a 60 minute period and expressed as arbitrary MLU measured by the illuminometer. Each experiment was performed in triplicate and the mean of 3 blank readings was subtracted from each corrected value for each reading. […]
# HPMEC = experiment: NADPH-dependent O2.- production by homogenates of TNFα-stimulated HPMEC, lucigenin-chemiluminescence; type: cell-based, human; conditions: HPMEC stimulated with TNFα 100 U/ml 45 min, homogenates 0.1 mg/well, NADPH 100 μM
# Experimental: as §1, §2
# O2^− production was also studied using total cell homogenate (for the endothelial cells and the fibroblasts). […] Soluble protein concentration was determined using a kit from Bio-Rad Laboratories Ltd. (Hertfordshire, U.K.). […]
smiles,measurement,setting,value
"OCc1cc(-c2ncc(-c3cccc(O)c3O)o2)ccc1O [LMH036, 3-(2-(4-hydroxy-3-(hydroxymethyl)phenyl)oxazol-5-yl)benzene-1,2-diol]",O2.- production by human cells,[1],inhibitory effect
same,O2.- production by human cells,HPMEC,inhibitory effect
